Consider 62 molecules from a melting point compilation (Tetko et al.; mined from patent text by program, amines drawn as free bases though some values may be those of a salt).

Molecules are shown by their SMILES. Bounds are passed on as bounds.

The melting point is the temperature of the solid-liquid transition. `COc1nc(C(F)(F)C(F)(F)F)c(F)c(=O)n1-c1cc(C(=O)OC(C)C)c(Cl)cc1F`: the melting point was 75 to 77 °C.
The result for `CC(=NO)C1CCC2C3CC=C4C(C)(C)C(=O)C(C#N)CC4(C)C3CCC12C` (configuration not stated) reads 190 to 192 °C.
Consider `CC(Cn1ncnn1)n1nnc2cc3c(=O)n(CC#N)nnc3cc2c1=O` (configuration not stated), for which the melting point lay in the range of 209 to 212 °C.
The result for `CNC(Cc1ccccc1NC(=O)C(C)(C)C)c1ccsc1` (configuration not stated) reads 81 to 84 °C; that for `CC(C)(C)c1cc(Cc2nc3cc(Cl)cc(Br)c3o2)cc(C(C)(C)C)c1O`, 133 to 136 °C.
Regarding `CCCC(=O)c1cnc2c(OC)cccc2c1Nc1c(C)cc2c(c1C)OCO2`, the melting point was 150 to 152 °C.
The result for `CCOC(=O)c1sc(C)nc1OC(=S)N(C)C` reads 87 to 90 °C; that for `Cc1cccc(C)c1N(Cn1cnc(Cl)c1Cl)C(=O)CCl`, 99 °C; that for `CS(=O)(=O)OCc1nc2ccc(F)cc2s1`, 68 to 72 °C.
For the molecule `CCOC(=O)C(=O)C1Cc2ccc(NS(=O)(=O)c3ccc(C)cc3)cc2C1=O` (configuration not stated), the melting point lay in the range of 202 to 204 °C.
The molecule `Cc1cc(OS(=O)(=O)c2c(F)cccc2F)cc2c(C3CCN(C)CC3)cn(C)c12` had a melting point of 139 °C.
The result for `O=C(O)Cn1c(=O)c(=O)[nH]c2cc([N+](=O)[O-])c(-n3ccc(CN4CCC(c5ccccc5)CC4)c3)cc21` reads greater than 210 °C; that for `COc1ccc(CN2C(=O)C3(COc4cc(OC(F)(F)F)ccc43)c3ccccc32)cc1` (configuration not stated), 82 to 84 °C.
The result for `Nc1ccc2c(c1)CNCCS2` reads 110 to 111 °C; that for `O=C(Nc1cccc2c1C(=O)OC2=O)c1ccc(Cl)s1`, 195 °C; that for `O=C(O)c1cc(C#Cc2ccccc2)c(C(=O)O)cc1C#Cc1ccccc1`, greater than 360 °C.
The result for `CC(=O)SCC(Cc1ccccc1)C(=O)Nc1cc(C(=O)O)ccc1C` (configuration not stated) reads 214 to 216 °C; that for `CC1SC(=O)NN=C1c1ccc2c(c1)C(=Cc1cccnc1)C(=O)N2` (configuration not stated), 285 °C.
In turn, `CC(C)OC(=O)c1cc(F)c(F)c(-c2ccc(Cl)cc2)n1` gave a melting point of 73 to 74 °C.
The result for `CCc1ccc(N2CCN(Cc3c[nH]c4ncccc34)CC2)cc1` reads 216 to 217 °C.
Regarding `CN(C)CCCc1ccc(S(=O)(=O)N2CCC(Nc3nc(N)c(C(=O)c4c(F)cccc4F)s3)CC2)cc1`, the melting point lay within 117 to 120 °C.
The result for `COCCOc1ccc(COC(=O)NS(=O)(=O)NCC2CC2)c(Oc2ncc(C(F)(F)F)cc2Cl)c1` reads 150 °C.
The result for `Cc1cc(C)c(Nc2nc(C)ncc2S(=O)(=O)c2ccc(-c3cncnc3)cc2)c(C)c1` reads 210 to 212 °C; that for `O=C1CC(Br)CCCCCCCCCN1` (configuration not stated), 155 to 157 °C; that for `O=C(Cc1ccccc1)c1cc2c(c(Cl)c1Cl)OC(C(=O)O)C2` (configuration not stated), 146 °C.
Molecule `O=C(N(Cc1cccs1)CC1CCCCC1)C12CC3CC(CC(C3)C1)C2` registered a melting point of 112 to 116 °C.
The result for `CCCCNC(=O)OC1c2ncccc2C(=O)N1c1ccc2ccc(Cl)nc2n1` (configuration not stated) reads 215 °C; that for `O=C1CCC(Nc2nccc(-n3ncc4ccccc43)n2)CC1`, 212 to 213 °C; that for `Cc1ccc2c3c(ccc2n1)OC[C@H](CNCCCc1csc2ccc(F)cc12)O3`, 117 to 120 °C.
The result for `C=CCC=CCC=CCCCCCCCc1cccc(O)c1` reads 60 °C; that for `Cc1c(C(=O)N[C@H](C)[C@](O)(Cn2cncn2)c2ccc(F)cc2F)cnn1-c1ccc(F)cc1F`, 208 to 209 °C; that for `CCCCc1cnc2ccccc2c1Nc1ccc(C(=O)O)cc1`, 276 °C.
The result for `c1cc2sccc2cn1` reads less than 50 °C; that for `CC(=O)N1C(C(=O)O)CSC1C(C)c1ccc(CC(C)C)cc1` (configuration not stated), 150 to 153 °C.
The molecule `CC(C)c1cccc(C(C)C)c1NC(=O)NC1CCOc2ccccc2C1` (configuration not stated) registered a melting point of 184 to 186 °C.
The result for `CCOC(=O)C1=C[C@@H](O)[C@H](NC(C)=O)[C@@H](NC(=O)OC(C)(C)C)C1` reads 177 to 178 °C.
The result for `COc1cc(NCCCCCCN2CCCN(C)CC2)c2nccc(C)c2c1` reads 137 to 139 °C.
The result for `CC(=O)Nc1ccc(Oc2ccc3nc(COc4ccc(CC5SC(=O)NC5=O)cc4)n(C)c3c2)cc1` (configuration not stated) reads 92.2 to 95 °C.
As to `C=CCOC(=O)c1cccc(NC(=O)NCC(=O)N(CC(=O)OC(C)(C)C)c2ccccc2C(=O)c2ccccc2)c1`, the melting point was 105 to 107 °C.
Take `FC(F)(F)c1cc(-c2ccc(Cl)c(Cl)c2)nc2c(-c3cccnc3)cnn12`: the melting point amounted to 224 °C.
The result for `C1=NNSc2ccccc21` reads 314 °C.
The result for `COC(=O)C(C)(C)C(=O)c1ccc(-n2cncn2)cc1` reads 84 to 85 °C; that for `CNc1nc(C(C)c2ccc(-c3ccccc3)c(F)c2)c(C(=O)O)s1` (configuration not stated), 133 to 134 °C.
The result for `Cc1cccc(C=CCC(CCC(=O)O)(C(=O)C=Cc2ccc(Cl)cc2)c2ccccc2)c1` (configuration not stated) reads 135 to 144 °C; that for `C#CCOC(=O)C=CC(=O)OCC#C`, 78 to 80 °C; that for `CCOCc1nc2c(N)nc3cc(-c4ccc(-c5ccc6c(c5)nc(N)c5nc(COCC)n(CC(C)(C)O)c56)cc4)ccc3c2n1CC(C)(C)O`, 325 to 328 °C.
In turn, `COc1cc(OC)cc(-c2ncn(-c3ccc(C(F)(F)F)cc3)c2-c2ccc(N(C)C)cc2)c1` showed a melting point of 84 to 84.5 °C.
The result for `CC(C)n1nc(-c2c(-c3ccccc3)nc(N)nc2-n2cncn2)ccc1=O` reads 266 to 268 °C.
Regarding `Cc1cc(C(=O)NCCc2ccc(CCC(=O)O)cc2)n[nH]1`, the melting point was 202 to 205 °C.
`COc1cc(C2C3=C(COC3=O)N(c3cc(OC)c(OC)c(OC)c3)c3cc4c(cc32)OCO4)cc(OC)c1OC` (configuration not stated) gave a melting point greater than 260 °C.
The result for `COc1ccc(Cn2cnc3c(-c4ccco4)nc(C(C)=O)nc32)cc1` reads 166 to 167 °C; that for `Cn1cnc(COc2nn3c(-c4ccccc4F)nnc3cc2C2CCC2)c1`, 176 °C.
The result for `O=c1[nH]c2sc(Br)c(Br)c2[nH]c1=O` reads greater than 300 °C.
`O=S(=O)(O)OC[C@H]1Cc2ccccc2CN1` displayed a melting point of 318 °C.
The result for `CC(C)CN1N=C2C=NC(c3ccccc3)=CN2C1CC(=O)O` (configuration not stated) reads 160 °C.
The result for `O=C(c1ccc(Br)cc1)N1CCN(CCCN2CCN(C(=O)c3ccc(Br)cc3)CC2)CC1` reads 170 to 173 °C; that for `COC(=O)CCN=c1sc2ccccc2s1`, 58 to 60 °C.
The result for `Cn1cc(C2=C(c3cn(C)c4ccc(O)cc34)C(=O)NC2=O)c2ccccc21` reads 284 to 287 °C; that for `c1ccc2[nH]c(SCc3cn4ccccc4n3)nc2c1`, 220 to 222 °C; that for `CCCCCCCCNCC(O)COc1ccc(SC)cc1` (configuration not stated), 79.5 to 80.5 °C.
The molecule `Cc1ccc(S(=O)(=O)n2ccc3c2CC(c2ccccc2)CC3=O)cc1` (configuration not stated) registered a melting point of 118 to 120 °C.
The result for `CCN(C(=O)CN1C(=O)c2ccccc2C1=O)c1ccc(C)c(CO)c1C` reads 205 to 207 °C.
